In patent US10278973B2, “Hydroxyl purine compounds and use thereof” (GUANGDONG RAYNOVENT BIOTECH CO., LTD., priority 2015, dated 2019):

Target: T1, Full length human PDE2A protease (Homo sapiens, UniProt O00408)
T1 construct: Full length human PDE2A protease; GST (N); host or cells: insect Sf9 cells (baculovirus)
Experiment: In vitro evaluation of PDE2 phosphodiesterase inhibitory activity (Transcreener AMP2/GMP2 fluorescence polarization)
Type: biochemical
Conditions: not given
Protocol: In Vitro Evaluation of PDE2 Phosphodiesterase Inhibitory Activity Experimental objectives: To detect the concentration of AMP/GMP produced in the reaction system by measuring the fluorescence intensity of the fluorescent dye AlexaFluor 633 substituted on AMP/GMP antibody and to calculate the PDE2 phosphodiesterase inhibitory IC50 value of the test compound. Test buffer solution: 10 mM Tris-HCl, pH 7.5, 5 mM MgCl2, 0.01% Brij 35, 1 mM DTT, and 1% DMSO. Enzyme: Full length human PDE2A protease expressed and recombined in insect Sf9 cells with baculovirus using N-terminal GST tag […] Transcreener® AMP^2/GMP^2 antibody, AMP2/GMP2 AlexaFluor 633 fluorescent dye The enzyme solution was prepared with freshly prepared buffer solution and then added to the reaction wells. The DMSO solution of the test compound was added by Echo550 non-contact nanoscale sonicate pipetting system and preincubated for 10 minutes at room temperature. The reaction was initiated by addition of substrate (1 μM cGMP) and allowed to react for one hour at room temperature. The detection system (Transcreener® AMP^2/GMP^2 antibody, AMP2/GMP2 AlexaFluor 633 fluorescent dye) was then added and reacted for 90 minutes at room temperature before fluorescence polarization was detected using Ex/Em 620/688. The intensity of fluorescence polarization was converted to nM concentration by the AMP/GMP standard curve and then relative inhibition of enzyme activity relative to DMSO blank was calculated. IC50 values and curves were calculated using the Prism software package (GraphPad Software, San Diego Calif., USA)

T1 sequence (O00408 whole entry): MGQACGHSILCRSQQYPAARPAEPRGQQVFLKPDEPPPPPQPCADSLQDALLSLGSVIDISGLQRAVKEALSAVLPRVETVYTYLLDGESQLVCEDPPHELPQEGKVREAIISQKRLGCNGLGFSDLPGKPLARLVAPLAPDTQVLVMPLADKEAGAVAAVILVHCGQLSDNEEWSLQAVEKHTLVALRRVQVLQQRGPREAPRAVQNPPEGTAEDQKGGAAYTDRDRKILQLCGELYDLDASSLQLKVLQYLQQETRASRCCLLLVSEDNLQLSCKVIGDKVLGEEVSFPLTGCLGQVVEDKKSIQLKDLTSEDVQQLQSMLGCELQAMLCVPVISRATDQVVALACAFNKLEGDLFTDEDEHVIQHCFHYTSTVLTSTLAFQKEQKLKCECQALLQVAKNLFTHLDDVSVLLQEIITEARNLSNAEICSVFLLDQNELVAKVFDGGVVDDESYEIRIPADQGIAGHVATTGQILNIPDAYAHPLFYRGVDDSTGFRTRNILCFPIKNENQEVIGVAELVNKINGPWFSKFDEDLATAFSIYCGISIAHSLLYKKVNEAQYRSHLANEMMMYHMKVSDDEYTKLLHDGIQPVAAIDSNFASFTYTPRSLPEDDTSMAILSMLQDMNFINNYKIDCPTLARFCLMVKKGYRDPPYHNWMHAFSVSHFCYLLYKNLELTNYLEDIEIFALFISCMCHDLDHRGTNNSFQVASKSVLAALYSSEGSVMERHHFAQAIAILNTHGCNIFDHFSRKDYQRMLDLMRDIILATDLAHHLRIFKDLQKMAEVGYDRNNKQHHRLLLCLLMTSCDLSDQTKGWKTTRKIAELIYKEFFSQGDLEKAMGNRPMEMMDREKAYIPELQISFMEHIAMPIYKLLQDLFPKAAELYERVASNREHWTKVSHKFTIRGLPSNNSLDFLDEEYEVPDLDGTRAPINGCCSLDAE

SMILES	IC50 [µM]
COc1ccc(Cn2c(=O)c3c(ncn3C)n(C)c2=O)cn1 [Example 48, 1-((6-Methoxypyridin-3-yl)methyl)-3,7-dimethyl-1H-purine-2,6(3H,7H)-dione]	10 to 50

Same assay, conditions: recombinant full length human PDE2A, substrate 1 μM cGMP, 1 hour at room temperature; read-out: PDE2 phosphodiesterase inhibitory activity

SMILES	IC50 [µM]
CC(C)c1oncc1Cn1c(=O)c2c(ncn2C)n(C)c1=O [Example 22, 1-((5-Isopropylisoxazol-4-yl)methyl)-3,7-dimethyl-1H-purine-2,6(3H,7H)-dione]	10 to 50
Cc1cc(CCCCn2c(=O)c3nn(C)cc3n(C)c2=O)on1 [Example 69, 2,4-Dimethyl-6-[4-(3-methylisoxazol-5-yl)-butyl]-2,4-dihydro-pyrazolo[4,3-d]pyrimidine-5,7-dione]	10 to 50
Cn1cnc2c1c(=O)n(CCCc1nc3ccccc3s1)c(=O)n2C [Example 43, 1-(3-(Benzo[d]thiazol-2-yl)propyl)-3,7-dimethyl-1H-purine 2,6(3H,7H)-dione]	10 to 50
Cn1cnc2c1c(=O)n(CCCCc1nn[nH]n1)c(=O)n2C [Example 37, 1-(4-(2H-tetrazol-5-yl)butyl)-3,7-dimethyl-1H-purine-2,6(3H,7H)-dione]	10 to 50
Cc1cc(CCCCn2c(=O)c3ccccc3n(C)c2=O)on1 [Example 83, 1-Methyl-3-(4-(3-methylisoxazol-5-yl)butyl)quinazoline-2,4(1H,3H)-dione]	10 to 50
Cc1cc(CCCCn2c(=O)c3ccn(C)c3n(C)c2=O)on1 [Example 67, 1,7-Dimethyl-3-(4-(3-methylisoxazol-5-yl)butyl)-1H-pyrrolo[2,3-d]pyrimidine-2,4(3H,7H)-dione]	10 to 50
Cc1cc(CCCCn2c(=O)c3c(cnn3CC(F)(F)F)n(C)c2=O)on1 [Example 75, 4-Methyl-6-(4-(3-methylisoxazol-5-yl)butyl)-1-(2,2,2-trifluoroethyl)-pyrazolo[4,3-d]pyrimidine-5,7-dione]	10 to 50
Cn1cnc2c1c(=O)n(CCCc1c[nH]c3ccccc13)c(=O)n2C [Example 41]	1 to 10
Cc1cc(CC2CCCC(n3c(=O)c4c(ncn4C)n(C)c3=O)C2)on1 (stereo not shown) [Example 28]	1 to 10
Cn1cnc2c1c(=O)n(CCCCCc1nn[nH]n1)c(=O)n2C [Example 39, 1-(5-(2H-tetrazol-5-yl)pentyl)-3,7-dimethyl-1H-purine-2,6(3H,7H)-dione]	10 to 50
Cc1cc(CCCCn2c(=O)c3cc[nH]c3n(C)c2=O)on1 [Example 66, 1-Methyl-3-(4-(3-methylisoxazol-5-yl)butyl)-1H-pyrrolo[2,3-d]pyrimidine-2,4(3H,7H)-dione]	10 to 50
Cn1cnc2c1c(=O)n(CCCc1[nH]nc3c1CCCC3)c(=O)n2C [Example 44]	10 to 50
Cc1cc(CCCCn2c(=O)c3c(ncn3CC(F)(F)F)n(C)c2=O)on1 [Example 51, 3-Methyl-1-(4-(3-methylisoxazol-5-yl)butyl)-7-(2,2,2-trifluoroethyl)-1H-purine-2,6(3H,7H)-dione]	10 to 50
Cc1cc(CCCCn2c(=O)c3c(ncn3C)n(C)c2=O)[nH]n1 [Example 12, 3,7-Dimethyl-1-(4-(3-methyl-1H-pyrazol-5-yl)butyl)-1H-purine-2,6(3H,7H)-dione]	10 to 50
Cc1cc(CCCCn2c(=O)c3c(ncn3C(F)F)n(C)c2=O)on1 (single isomer, unassigned) [Example 49 Isomer 1, 7-(Difluoromethyl)-3-methyl-1-(4-(3-methylisoxazol-5-yl)butyl)-1H-purine-2,6(3H,7H)-dione]	10 to 50
Cn1nnc(CCCCn2c(=O)c3c(ncn3C)n(C)c2=O)n1 [Example 38 Isomer 1, 3,7-Dimethyl-1-(4-(2-methyl-2H-tetrazol-5-yl)butyl)-1H-purine-(3H,7H)-dione]	10 to 50
CCc1cc(CCn2c(=O)c3c(ncn3C)n(C)c2=O)nn1C [Example 11 Product 2, 1-(2-(5-Ethyl-1-methyl-1H-pyrazol-3-yl)ethyl)-3,7-dimethyl-1H-purine-2,6(3H,7H)-dione]	10 to 50
Cc1cc(CCCCn2c(=O)c3c(ncn3C)n(C)c2=O)n(C)n1 (single isomer, unassigned) [Example 14 Isomer 1, 1-(4-(1,3-dimethyl-1H-pyrazol-5-yl)butyl)-3,7-dimethyl-1H-purine-2,6(3H,7H)-dione]	10 to 50

SMILES	IC50 [µM]
Cc1cc(CCCCn2c(=O)c3c(ncn3C(C)C)n(C)c2=O)on1 [Example 54, 7-Isopropyl-3-methyl-1-(4-(3-methylisoxazol-5-yl)butyl)-1H-purine-2,6(3H,7H)-dione]	10 to 50
Cc1cc(CCCCn2c(=O)c3c(cnn3CC3CC3)n(C)c2=O)on1 [Example 81, 1-(Cyclopropylmethyl)-4-methyl-6-(4-(3-methylisoxazol-5-yl)butyl)-pyrazolo[4,3-d]pyrimidin-5,7-dione]	10 to 50
CCCn1cnc2c1c(=O)n(CCCCc1cc(C)no1)c(=O)n2C [Example 52, 3-Methyl-1-(4-(3-methylisoxazol-5-yl)butyl)-7-propyl-1H-purine-2,6(3H,7H)-dione]	1 to 10
Cn1ncc(CCCCn2c(=O)c3c(ncn3C)n(C)c2=O)n1 [Example 35, 3,7-Dimethyl-1-(4-(2-methyl-2H-1,2,3-triazol-4-yl)butyl)-1H-purine-(3H,7H)-dione]	10 to 50
Cn1cnc2c1c(=O)n(CCCCc1cc3ccccc3o1)c(=O)n2C [Example 42, 1-(4-(Benzofuran-2-yl)butyl)-3,7-dimethyl-1H-purine-2,6(3H,7H)-dione]	1 to 10
Cc1cc(CCCCn2c(=O)c3c(ncn3C)n(C)c2=O)no1 [Example 20, 3,7-Dimethyl-1-(4-(5-methylisoxazol-3-yl)butyl)-1H-purine-2,6(3H,7H)-dione]	10 to 50
Cc1cc(CCCCn2c(=O)c3c(ncn3CC3CC3)n(C)c2=O)on1 [Example 56, 7-(Cyclopropylmethyl)-3-methyl-1-(4-(3-methylisoxazol-5-yl)butyl)-1H-purine-2,6(3H,7H)-dione]	1 to 10
CCn1cnc2c1c(=O)n(CCCCc1cc(C)no1)c(=O)n2C [Example 50, 7-Ethyl-3-methyl-1-(4-(3-methylisoxazol-5-yl)butyl)-1H-purine-2,6(3H,7H)-dione]	1 to 10
CC(C)c1oncc1Cn1c(=O)c2c(ncn2CC2CC2)n(C)c1=O [Example 58]	1 to 10
Cc1cc(CCCCn2c(=O)c3c(ncn3CC(C)C)n(C)c2=O)on1 [Example 60, 7-Isobutyl-3-methyl-1-(4-(3-methylisoxazol-5-yl)butyl)-1H-purine-2,6(3H,7H)-dione]	1 to 10
Cn1nnnc1CCCCCn1c(=O)c2c(ncn2C)n(C)c1=O (single isomer, unassigned) [Example 40 Isomer 1, 3,7-Dimethyl-1-(5-(1-methyl-1H-tetrazol-5-yl)pentyl)-1H-purine-(3H,7H)-dione]	10 to 50
Cc1noc(C)c1Cn1c(=O)c2c(ncn2CC2CC2)n(C)c1=O [Example 57, 7-(Cyclopropylmethyl)-1-((3,5-dimethylisoxazol-4-yl)methyl)-3-methyl-1H-purine-2,6-(3H,7H)-dione]	1 to 10
Cn1cnc2c1c(=O)n(CCCCc1cn[nH]n1)c(=O)n2C [Example 34, 1-(4-(2H-1,2,3-triazol-4-yl)butyl)-3,7-dimethyl-1H-purine-2,6(3H,7H)-dione]	10 to 50
Cc1cc(-c2ccc(Cn3c(=O)c4c(ncn4C)n(C)c3=O)cc2)on1 [Example 45, 3,7-Dimethyl-1-[4-(3-methylisoxazol-5-yl)-benzyl]-3,7-dihydro-purine-2,6-dione]	1 to 10
Cc1nc(C)c(Cn2c(=O)c3c(ncn3C)n(C)c2=O)s1 [Example 29, 1-((2,4-Dimethylthiazol-5-yl)methyl)-3,7-dimethyl-1H-purine-2,6(3H,7H)-dione]	10 to 50
Cn1nnc(CCCCCn2c(=O)c3c(ncn3C)n(C)c2=O)n1 (single isomer, unassigned) [Example 40 Isomer 2, 3,7-Dimethyl-1-(5-(1-methyl-2H-tetrazol-5-yl)pentyl)-1H-purine-(3H,7H)-dione]	10 to 50
CCCCn1cnc2c1c(=O)n(CCCCc1cc(C)no1)c(=O)n2C [Example 55, 7-Butyl-3-methyl-1-(4-(3-methylisoxazol-5-yl)butyl)-1H-purine-2,6(3H,7H)-dione]	1 to 10
Cc1cc(CCCCn2c(=O)c3c(ncn3CC3(C)COC3)n(C)c2=O)on1 [Example 61, 3-Methyl-1-(4-(3-methylisoxazol-5-yl)butyl)-7-((3-methyloxetan-3-yl)methyl)-1H-purine-2,6(3H,7H)-dione]	10 to 50
